# According to patent US9918452B2, “Method and apparatus for controlling herbivore fowl populations” (2345422 Ontario Inc., priority 2013, dated 2018):
# Tested on: Canada Geese
# Assay: Repellent-adulterated feed plus non-adulterated attractant feed in a recreational area
# Type: in vivo
# Text: Owing to the problems encountered with both wide-scale repellent spraying and the use of repellent-treated feed on its own, a new approach to controlling the goose population at the site of Example 1 was developed. In this new approach, both repellent-adulterated feed in the form of cracked corn treated with methyl anthranilate, and non-adulterated feed (also in the form of cracked corn) was used.
# In this approach to controlling the goose population at the site of Example 1, a commercially available animal feeder with a 200 lb. capacity tripod mounted hopper and SOLAR ELITE® dispensing head were obtained from On Time Wildlife Feeders (2488 Hwy 33, Ruston, La. 71270, U.S.A.). The feeder was modified as described in Example 5 to become a repellent station. The repellent reservoir was filled with an 8% solution of methyl anthranilate solution (prepared using fifty-five percent of a commercially available REJEX-IT® solution and forty-five percent water) and the flow rate from the repellent reservoir was adjusted to be approximately 0.0025 liters per second. The hopper of the repellent station was then filled with cracked corn.
# In FIG. 1a a portion of the site described in Example 1 is depicted. […]
structure (smiles),measurement,setting,value
COC(=O)c1ccccc1N [methyl anthranilate],acceptance of repellent-adulterated cracked corn by geese,"8% methyl anthranilate solution sprayed on cracked corn at the repellent station, approx. 0.0025 liters per second",intolerable
same,return of geese to the grassy area where they are not desired,"repellent station with 8% methyl anthranilate solution plus unadulterated cracked corn on paved area, length of trial (six weeks)",did not return to grassy area 100
